Results as given in patent US12686692B2, “KRas G12D inhibitors” (Mirati Therapeutics, Inc., priority 2020, dated 2026).

Legend:
[1] = tested on: KRas G12D-mediated Phosphorylation of ERK; assay: Inhibition of KRas G12D-mediated Phosphorylation of ERK in AGS cells; assay type: cell-based; conditions: Homo sapiens; AGS cells expressing G12D, 3 hours, phospho-ERK normalized to GAPDH
Protocol: AGS cells (ATCC CRL-1739) expressing G12D were grown in DMEM medium supplemented with 10% fetal bovine serum, 10 mM HEPES, and Penicillin/Streptomycin. Cells were plated in tissue culture treated 96 well plates at a density of 40,000 cells/well and allowed to attach for 12-14 hours. Diluted compounds were then added in a final concentration of 0.5% DMSO. After 3 hours, the medium was removed, 150 μl of 4.0% formaldehyde was added and the plates incubated at room temperature for 20 minutes. The plates were washed with PBS, and permeabilized with 150 μL of ice cold 100% methanol for 10 minutes. Non-specific antibody binding to the plates was blocked using 100 μL Licor blocking buffer (Li-Cor Biotechnology, Lincoln NE) for 1 hour at room temperature.
The amount of phospho-ERK was determined using an antibody specific for the phosphorylated form of ERK and compared to the amount of GAPDH. Primary antibodies used for the detection were added as follows: Phospho-ERK(Cell Signaling cs-9101) diluted 1:500 and GAPDH(Millipore MAB374) diluted 1:5000 in Licor block+0.05% Tween 20. The plates were incubated for 2 hours at room temperature. The plates were washed with PBS+0.05% Tween 20.
Secondary antibodies used to visualize primary antibodies were added as follows: Anti-rabbit-680 diluted 1:1000 and Anti-mouse-800 diluted 1:1000 both in Licor block+0.05% Tween20, and were incubated for 1 hour at room temperature. The plates were washed with PBS+0.05% Tween 20. A 100 μl aliquot of PBS was added to each well and the plates were read on a Li-Cor Odyssey CLX plate reader.
The phospho-ERK(Thr202/Tyr204 signal was normalized to the GAPDH signal for each well and percent of DMSO control values were calculated. IC50 values were generated using a 4-parameter fit of the dose response curve.

KRas G12D = KRas G12D (Homo sapiens, UniProt P01116, G12D); assay: KRas G12D Binding Assay (TR-FRET displacement of labeled tracer); design: corresponding to amino acids 1:169, produced at Array BioPharma; biotin (protein is biotinylated); conditions: TR-FRET displacement of Cy5 labelled tracer, biotinylated GDP-loaded KRAS G12D (aa 1:169), 60 minute incubation at 22° C.
KRas G12D, sequence (P01116 1-169 isoform P01116-2 G12D): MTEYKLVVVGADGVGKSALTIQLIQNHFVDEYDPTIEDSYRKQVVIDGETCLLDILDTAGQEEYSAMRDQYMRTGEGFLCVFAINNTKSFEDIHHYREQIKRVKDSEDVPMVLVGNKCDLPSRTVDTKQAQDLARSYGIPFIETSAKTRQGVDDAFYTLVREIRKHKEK
Protocol: This Example illustrates that exemplary compounds of the present invention bind to KRas G12D and are capable of displacing a labeled tracer ligand occupying the KRas G12D binding site.
The ability of a compound to bind to KRAS G12D was measured using a TR-FRET displacement assay. Biotinylated GDP-loaded recombinant human KRAS G12D (corresponding to amino acids 1:169, produced at Array BioPharma) was incubated with a custom-made Cy5 labelled tracer, europium labelled streptavidin and compound (2% DMSO final) in buffer (50 mM HEPES [pH 7.5], 5 mM MgCl2, 0.005% Tween-20 & 1 mM DTT). After a 60 minute incubation at 22° C., the reaction was measured using a PerkinElmer EnVision multimode plate reader via TR-FRET dual wavelength detection, and the percent of control (POC) calculated using a ratiometric emission factor. […] The POC values were fit to a 4-parameter logistic curve and the IC50 value was determined as the concentration where the curve crosses 50 POC.

SMILES	IC50 [1]	IC50 (KRas G12D)
CCc1cccc2cccc(N3CCc4c(nc(OCC56CCCN5C(CO)CC6)nc4N4C[C@H]5CC[C@@H](C4)N5)C3)c12 (mixture of isomers) [Example 103, (7a-(((4-((1R,5S)-3,8-diazabicyclo[3.2.1]octan-3-yl)-7-(8-ethylnaphthalen-1-yl)-5,6,7,8-tetrahydropyrido[3,4-d]pyrimidin-2-yl)oxy)methyl)hexahydro-1H-pyrrolizin-3-yl)methanol]	6220 nM	3.9 nM
CCc1cccc2cc(O)cc(N3CCc4c(nc(OC[C@@]56CCCN5C[C@H](F)C6)nc4N4C[C@H]5CC[C@@H](C4)N5)C3)c12 [Example 7, 4-(4-((1R,5S)-3,8-diazabicyclo[3.2.1]octan-3-yl)-2-(((2R,7aS)-2-fluorotetrahydro-1H-pyrrolizin-7a(5H)-yl)methoxy)-5,8-dihydropyrido[3,4-d]pyrimidin-7(6H)-yl)-5-ethylnaphthalen-2-ol]	13 nM	1 nM
CCc1c(F)ccc2cc(O)cc(N3CCc4c(nc(OCC56CCCN5CCC6)nc4N4C[C@H]5CC[C@@H](C4)N5)C3)c12 [Example 119, 4-(4-((1R,5S)-3,8-diazabicyclo[3.2.1]octan-3-yl)-2-((hexahydro-1H-pyrrolizin-7a-yl)methoxy)-5,6-dihydropyrido[3,4-d]pyrimidin-7(8H)-yl)-5-ethyl-6-fluoronaphthalen-2-ol]	7 nM	1.6 nM
CCc1cccc2cccc(N3CCc4c(nc(OCC56CCCN5C(COC(=O)N(C)OC)CC6)nc4N4C[C@H]5CC[C@@H](C4)N5)C3)c12 (mixture of isomers) [Example 68, (7a-(((4-((1R,5S)-3,8-diazabicyclo[3.2.1]octan-3-yl)-7-(8-ethylnaphthalen-1-yl)-5,6,7,8-tetrahydropyrido[3,4-d]pyrimidin-2-yl)oxy)methyl)hexahydro-1H-pyrrolizin-3-yl)methyl methoxy(methyl)carbamate]	1330 nM	5.9 nM
CCc1cccc2cccc(N3CCc4c(nc(OCC56CCCN5[C@@H](COC(=O)N(C)C)CC6)nc4N4CC5CCC(C4)N5)C3)c12 (stereo partly drawn) [Example 13, (7a-(((4-((1R,5S)-3,8-diazabicyclo[3.2.1]octan-3-yl)-7-(8-ethylnaphthalen-1-yl)-5,6,7,8-tetrahydropyrido[3,4-d]pyrimidin-2-yl)oxy)methyl)hexahydro-1H-pyrrolizin-3-yl)methyl dimethylcarbamate (trans enantiomers)]	261 nM	1.3 nM
COC[C@@H]1C[C@@H]2CN(c3nc(OC[C@@H]4CCCN4C)nc4c3CCN(c3cccc5cccc(Cl)c35)C4)C[C@H]1N2 (single isomer, unassigned) [Example 93]	> 16700 nM	360 nM
F[C@H]1CN2CCCC2(COc2nc3c(c(N4CC5CCC(C4)N5)n2)CCN(c2cccc(Cl)c2C(F)(F)F)C3)C1 (mixture of isomers) [Example 48, 4-((1R,5S)-3,8-diazabicyclo[3.2.1]octan-3-yl)-7-(3-chloro-2-(trifluoromethyl)phenyl)-2-((2-fluorotetrahydro-1H-pyrrolizin-7a(5H)-yl)methoxy)-5,6,7,8-tetrahydropyrido[3,4-d]pyrimidine]	5220 nM	5.5 nM
CCc1cccc2cccc(N3CCc4c(nc(OC[C@]56CCCN5[C@@H](COC(=O)NC)CC6)nc4N4C[C@H]5CC[C@@H](C4)N5)C3)c12 [Example 18, ((3R,7aR)-7a-(((4-((1R,5S)-3,8-diazabicyclo[3.2.1]octan-3-yl)-7-(8-ethylnaphthalen-1-yl)-5,6,7,8-tetrahydropyrido[3,4-d]pyrimidin-2-yl)oxy)methyl)hexahydro-1H-pyrrolizin-3-yl)methyl methylcarbamate]	70 nM	2 nM
c1ccc2c(N3CCc4c(nc(OCC56CCCN5CCC6)nc4N4C[C@H]5CC[C@@H](C4)N5)C3)cccc2c1 [Example 114, 4-((1R,5S)-3,8-diazabicyclo[3.2.1]octan-3-yl)-2-((hexahydro-1H-pyrrolizin-7a-yl)methoxy)-7-(naphthalen-1-yl)-5,6,7,8-tetrahydropyrido[3,4-d]pyrimidine]	> 16700 nM	34.2 nM
CCc1cccc2cccc(N3CCc4c(nc(OC[C@]56CCCN5[C@@H](COC(=O)N5CCOCC5)CC6)nc4N4C[C@H]5CC[C@@H](C4)N5)C3)c12 [Example 97, ((3R,7aR)-7a-(((4-((1R,5S)-3,8-diazabicyclo[3.2.1]octan-3-yl)-7-(8-ethylnaphthalen-1-yl)-5,6,7,8-tetrahydropyrido[3,4-d]pyrimidin-2-yl)oxy)methyl)hexahydro-1H-pyrrolizin-3-yl)methyl morpholine-4-carboxylate]	187 nM	1.2 nM
Brc1ccc(N2CCc3c(nc(OCC45CCCN4CCC5)nc3N3C[C@H]4CC[C@@H](C3)N4)C2)c2ccccc12 [Example 112, 4-((1R,5S)-3,8-diazabicyclo[3.2.1]octan-3-yl)-7-(4-bromonaphthalen-1-yl)-2-((hexahydro-1H-pyrrolizin-7a-yl)methoxy)-5,6,7,8-tetrahydropyrido[3,4-d]pyrimidine]	> 16700 nM	5460 nM
CCc1cccc2cccc(N3CCc4c(nc(OC[C@]56CCCN5[C@@H](COC(=O)N(C)CCO)CC6)nc4N4C[C@H]5CC[C@@H](C4)N5)C3)c12 [Example 107, ((3R,7aR)-7a-(((4-((1R,5S)-3,8-diazabicyclo[3.2.1]octan-3-yl)-7-(8-ethylnaphthalen-1-yl)-5,6,7,8-tetrahydropyrido[3,4-d]pyrimidin-2-yl)oxy)methyl)hexahydro-1H-pyrrolizin-3-yl)methyl (2-hydroxyethyl)(methyl)carbamate]	408 nM	2 nM
CCc1cccc2cccc(N3CCc4c(nc(OCC56CCCN5C(COC(=O)N(CC)CC)CC6)nc4N4C[C@H]5CC[C@@H](C4)N5)C3)c12 (mixture of isomers) [Example 66, (7a-(((4-((1R,5S)-3,8-diazabicyclo[3.2.1]octan-3-yl)-7-(8-ethylnaphthalen-1-yl)-5,6,7,8-tetrahydropyrido[3,4-d]pyrimidin-2-yl)oxy)methyl)hexahydro-1H-pyrrolizin-3-yl)methyl diethylcarbamate]	2210 nM	4.6 nM
Oc1cc(N2CCc3c(nc(OCC45CCCN4CCC5)nc3N3C[C@H]4CC[C@@H](C3)N4)C2)c2c(Cl)c(F)ccc2c1 [Example 116, 4-(4-((1R,5S)-3,8-diazabicyclo[3.2.1]octan-3-yl)-2-((hexahydro-1H-pyrrolizin-7a-yl)methoxy)-5,6-dihydropyrido[3,4-d]pyrimidin-7(8H)-yl)-5-chloro-6-fluoronaphthalen-2-ol]	46 nM	0.5 nM
CNC(=O)OCC1CCC2(COc3nc4c(c(N5C[C@H]6CC[C@@H](C5)N6)n3)CCN(c3cccc5cccc(Cl)c35)C4)CCCN12 (mixture of isomers) [Example 100, (7a-(((4-((1R,5S)-3,8-diazabicyclo[3.2.1]octan-3-yl)-7-(8-chloronaphthalen-1-yl)-5,6,7,8-tetrahydropyrido[3,4-d]pyrimidin-2-yl)oxy)methyl)hexahydro-1H-pyrrolizin-3-yl)methyl methylcarbamate]	1310 nM	9.7 nM
CCc1cccc2cccc(N3CCc4c(nc(OCC56CCCN5C(COC(=O)N5CCS(=O)(=O)CC5)CC6)nc4N4C[C@H]5CC[C@@H](C4)N5)C3)c12 (mixture of isomers) [Example 67, (7a-(((4-((1R,5S)-3,8-diazabicyclo[3.2.1]octan-3-yl)-7-(8-ethylnaphthalen-1-yl)-5,6,7,8-tetrahydropyrido[3,4-d]pyrimidin-2-yl)oxy)methyl)hexahydro-1H-pyrrolizin-3-yl)methyl thiomorpholine-4-carboxylate 1,1-dioxide]	150 nM	1.5 nM
CNC(=O)OC[C@H]1CCC2(COc3nc4c(c(N5CC6CCC(C5)N6)n3)CCN(c3cccc5cccc(F)c35)C4)CCCN12 (stereo partly drawn) [Example 34, (7a-(((4-((1R,5S)-3,8-diazabicyclo[3.2.1]octan-3-yl)-7-(8-fluoronaphthalen-1-yl)-5,6,7,8-tetrahydropyrido[3,4-d]pyrimidin-2-yl)oxy)methyl)hexahydro-1H-pyrrolizin-3-yl)methyl methylcarbamate (trans enantiomers)]	3910 nM	111 nM
